pEC50: −log10 of the molar value.
Target: T1, human GLP-1R receptor (Homo sapiens, UniProt P43220)
T1 construct: expressed in transfected cells
Assay: GLP-1R low expression cell assay (cAMP TR-FRET, CHO-K1_hGLP-1Rlow_clone10 cells)
Assay type: cell-based
Settings: for pEC50: cAMP TR-FRET, 30 min at 25° C.; for Emax: maximum activation relative to control GLP-1 peptide agonist
Outline: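 CHO-K1 cells stably expressing low surface human GLP-1R (clone10), 1,000 cells/well, exposed to 10-point 3-fold compound dilutions for 30 min at 25 °C. cAMP measured by TR-FRET (Eu-cAMP tracer/ULight-anti-cAMP, 15 min). EC50 from Hill fit of duplicate percent activation relative to a parallel GLP-1 control agonist.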

T1 sequence (P43220 24-463): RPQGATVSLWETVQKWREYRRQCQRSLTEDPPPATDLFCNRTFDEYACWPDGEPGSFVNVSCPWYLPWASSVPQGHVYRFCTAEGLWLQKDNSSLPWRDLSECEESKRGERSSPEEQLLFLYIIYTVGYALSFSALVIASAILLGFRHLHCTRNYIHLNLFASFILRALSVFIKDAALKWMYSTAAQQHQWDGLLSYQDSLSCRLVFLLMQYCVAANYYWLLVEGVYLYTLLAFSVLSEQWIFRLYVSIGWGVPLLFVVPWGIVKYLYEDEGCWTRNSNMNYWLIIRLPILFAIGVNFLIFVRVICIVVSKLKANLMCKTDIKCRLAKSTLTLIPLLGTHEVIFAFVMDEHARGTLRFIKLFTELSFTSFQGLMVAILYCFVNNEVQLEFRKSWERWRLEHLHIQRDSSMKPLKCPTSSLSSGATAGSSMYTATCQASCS

| SMILES | pEC50 | Emax |
| --- | --- | --- |
| Cn1c(CN2CCC(c3nccc(OCc4ccc(C#N)cc4F)n3)CC2)nc2c(OC(F)F)cc(C(=O)O)cc21 [Compound 184, 2-((4-(4-((4-Cyano-2-fluorobenzyl)oxy)pyrimidin-2-yl)piperidin-1-yl)methyl)-4-(difluoromethoxy)-1-methyl-1H-benzo[d]imidazole-6-carboxylic acid] | 6.00 to 7.00 | > 85% |
| [2H]C([2H])(C)Oc1cc(C(=O)O)cc2c1nc(CN1CCC(c3cccc(OC([2H])([2H])c4ccc(C#N)cc4F)n3)CC1)n2C [Compound 285, 2-((4-(6-((4-Cyano-2-fluorophenyl)methoxy-d2)pyridin-2-yl)piperidin-1-yl)methyl)-4-(ethoxy-1,1-d2)-1-methyl-1H-benzo[d]imidazole-6-carboxylic acid] | > 8.00 | > 85% |
| [2H]C([2H])([2H])N(c1nc2c(OC(F)F)cc(C(=O)O)cc2n1C)[C@H]1CC[C@H](c2cccc(OCc3ccc(Cl)cc3F)n2)CC1 [Compound 372, 2-(((1r,4r)-4-(6-((4-Chloro-2-fluorobenzyl)oxy)pyridin-2-yl)cyclohexyl)(methyl-d3)amino)-4-(difluoromethoxy)-1-methyl-1H-benzo[d]imidazole-6-carboxylic acid] | > 8.00 | > 85% |
| Cn1c(CN2CCC(c3cccc(OCc4ccc(C#N)cc4F)n3)CC2)nc2c(OCC(F)(F)F)cc(C(=O)O)cc21 [Compound 121, 2-((4-(6-((4-Cyano-2-fluorobenzyl)oxy)pyridin-2-yl)piperidin-1-yl)methyl)-1-methyl-4-(2,2,2-trifluoroethoxy)-1H-benzo[d]imidazole-6-carboxylic acid] | > 8.00 | > 85% |
| COc1cc(-c2cc(=O)[nH]o2)cc2c1nc(CN1CCC(c3cccc(OCc4ccc(Cl)cc4F)n3)CC1)n2C[C@@H]1CCO1 [Compound 382, (S)-5-(2-((4-(6-((4-Chloro-2-fluorobenzyl)oxy)pyridin-2-yl)piperidin-1-yl)methyl)-4-methoxy-1-(oxetan-2-ylmethyl)-1H-benzo[d]imidazol-6-yl) isoxazol-3 (2H)-one] | > 8.00 | 50 to 85% |
| COc1cc(C(=O)O)cc2c1nc([C@H](C)N1CCC(c3cccc(OCc4ccc(C#N)cc4F)n3)CC1)n2C[C@@H]1CCO1 [Compound 95, 2-((S)-1-(4-(6-((4-Cyano-2-fluorobenzyl)oxy)pyridin-2-yl)piperidin-1-yl)ethyl)-4-methoxy-1-(((S)-oxetan-2-yl)methyl)-1H-benzo[d]imidazole-6-carboxylic acid] | > 8.00 | > 85% |
| O=C(O)c1cc(OC(F)F)c2nc(CN3CCC(c4cccc(OCc5ccc(Cl)cc5F)n4)CC3)n(C3CC3)c2c1 [Compound 199, 2-((4-(6-((4-Chloro-2-fluorobenzyl)oxy)pyridin-2-yl)piperidin-1-yl)methyl)-1-cyclopropyl-4-(difluoromethoxy)-1H-benzo[d]imidazole-6-carboxylic acid] | 7.00 to 8.00 | > 85% |
| COc1cc(C(=O)O)cc2c1nc(CN1CCC(c3cccc4c3OC[C@H](c3ccc(C#N)cc3F)O4)CC1)n2C [Compound 274, (S)-2-((4-(2-(4-Cyano-2-fluorophenyl)-2,3-dihydrobenzo[b][1,4]dioxin-5-yl)piperidin-1-yl)methyl)-4-methoxy-1-methyl-1H-benzo[d]imidazole-6-carboxylic acid] | < 6.00 | < 25% |
| C[C@H](c1nc2c(OC(F)F)cc(C(=O)O)cc2n1C)N1CCC(c2cccc(OCc3ccc(C#N)cc3F)n2)CC1 [Compound 122, (R)-2-(1-(4-(6-((4-Cyano-2-fluorobenzyl)oxy)pyridin-2-yl)piperidin-1-yl)ethyl)-4-(difluoromethoxy)-1-methyl-1H-benzo[d]imidazole-6-carboxylic acid] | < 6.00 | > 85% |
| Cn1c(CN2CCC(c3cccc4c3O[C@H](c3ccc(Cl)cc3F)CO4)CC2)nc2c(OC(F)F)cc(C(=O)O)cc21 [Compound 335, (R)-2-((4-(3-(4-Chloro-2-fluorophenyl)-2,3-dihydrobenzo[b][1,4]dioxin-5-yl)piperidin-1-yl)methyl)-4-(difluoromethoxy)-1-methyl-1H-benzo[d]imidazole-6-carboxylic acid] | < 6.00 | 50 to 85% |
| Cn1c(CN2CCC(c3cccc4c3O[C@H](c3ccc(Cl)cc3F)CC4)CC2)nc2c(OC(F)F)cc(C(=O)O)cc21 [Compound 368, (S)-2-((4-(2-(4-Chloro-2-fluorophenyl)chroman-8-yl)piperidin-1-yl)methyl)-4-(difluoromethoxy)-1-methyl-1H-benzo[d]imidazole-6-carboxylic acid] | < 6.00 | 25 to 50% |
| Cn1c(CN2CCC(c3cccc(OCc4ccc(Cl)cc4F)n3)CC2)nc2c(OC(F)F)c(C(=O)O)ccc21 [Compound 220, 2-((4-(6-((4-Chloro-2-fluorobenzyl)oxy)pyridin-2-yl)piperidin-1-yl)methyl)-4-(difluoromethoxy)-1-methyl-1H-benzo[d]imidazole-5-carboxylic acid] | < 6.00 | > 85% |
| O=C(O)c1ccc2c(nc(CN3CCC(c4cccc(OCc5ccc(Cl)cc5F)n4)CC3)n2C[C@@H]2CCO2)c1O [Compound 245, (S)-2-((4-(6-((4-Chloro-2-fluorobenzyl)oxy)pyridin-2-yl)piperidin-1-yl)methyl)-4-hydroxy-1-(oxetan-2-ylmethyl)-1H-benzo[d]imidazole-5-carboxylic acid] | > 8.00 | > 85% |
| CO[C@H]1C[C@H](Oc2cc(C(=O)O)cc3c2nc(CN2CCC(c4cccc(OCc5ccc(Cl)cc5F)n4)CC2)n3C)C1 [Compound 325, 2-((4-(6-((4-Chloro-2-fluorobenzyl)oxy)pyridin-2-yl)piperidin-1-yl)methyl)-4-((1r,3r)-3-methoxycyclobutoxy)-1-methyl-1H-benzo[d]imidazole-6-carboxylic acid] | 6.00 to 7.00 | > 85% |
| Cn1c(CN2CCC(c3cncc(OCc4ccc(Cl)cc4F)n3)CC2)nc2c(OC(F)F)cc(C(=O)O)cc21 [Compound 374, 2-((4-(6-((4-Chloro-2-fluorobenzyl)oxy)pyrazin-2-yl)piperidin-1-yl)methyl)-4-(difluoromethoxy)-1-methyl-1H-benzo[d]imidazole-6-carboxylic acid] | 6.00 to 7.00 | > 85% |

Continued, values first:

| pEC50 | Emax | SMILES |
| --- | --- | --- |
| < 6.00 | 25 to 50% | Cn1c(CN2CCC(c3cccc(CCc4ccc(Cl)cc4)n3)CC2)nc2c(OC(F)F)cc(C(=O)O)cc21 [Compound 219, 2-((4-(6-(4-chlorophenethyl)pyridin-2-yl)piperidin-1-yl)methyl)-4-(difluoromethoxy)-1-methyl-1H-benzo[d]imidazole-6-carboxylic acid] |
| 7.00 to 8.00 | > 85% | COc1nc(C(=O)O)cc2c1nc(CN1CCC(c3cccc(OCc4ccc(Cl)cc4F)n3)CC1)n2C [Compound 380, 2-((4-(6-((4-Chloro-2-fluorobenzyl)oxy)pyridin-2-yl)piperidin-1-yl)methyl)-4-methoxy-1-methyl-1H-imidazo[4,5-c]pyridine-6-carboxylic acid] |
| 7.00 to 8.00 | 50 to 85% | COc1cc(C#CC(=O)O)cc2c1nc(CN1CCC(c3cccc(OCc4ccc(Cl)cc4F)n3)CC1)n2C[C@@H]1CCO1 [Compound 257, (S)-3-(2-((4-(6-((4-Chloro-2-fluorobenzyl)oxy)pyridin-2-yl)piperidin-1-yl)methyl)-4-methoxy-1-(oxetan-2-ylmethyl)-1H-benzo[d]imidazol-6-yl) propiolic acid] |
| < 6.00 | < 25% | O=C(O)c1ccc2nc(CN3CCC(c4cccc(OCc5ccc(Cl)cc5F)n4)CC3)c3c(c2c1)COCC3 [Compound 244, 5-((4-(6-((4-chloro-2-fluorobenzyl)oxy)pyridin-2-yl)piperidin-1-yl)methyl)-3,4-dihydro-1H-pyrano[4,3-c]quinoline-9-carboxylic acid] |
| 7.00 to 8.00 |  | Cn1c(CN2CCC(c3cccc(OCc4ccc(F)cc4F)n3)CC2)nc2c(OC(F)F)cc(C(=O)O)cc21 [Compound 250, 2-((4-(6-((2,4-Difluorobenzyl)oxy)pyridin-2-yl)piperidin-1-yl)methyl)-4-(difluoromethoxy)-1-methyl-1H-benzo[d]imidazole-6-carboxylic acid] |
| > 8.00 | > 85% | [2H]C([2H])(C)Oc1cc(C(=O)O)cc2c1nc(C([2H])([2H])N1CCC(c3cccc(OC([2H])([2H])c4ccc(Cl)cc4F)n3)CC1)n2C [Compound 381, 2-((4-(6-((4-Chloro-2-fluorophenyl)methoxy-d2)pyridin-2-yl)piperidin-1-yl)methyl-d2)-4-(ethoxy-1,1-d2)-1-methyl-1H-benzo[d]imidazole-6-carboxylic acid] |
| > 8.00 | > 85% | Cn1c(CN2CCC(c3cccc(OCc4ccc(Cl)cc4F)n3)CC2)nc2c(OC3CC3)cc(C(=O)O)cc21 [Compound 215, 2-((4-(6-((4-Chloro-2-fluorobenzyl)oxy)pyridin-2-yl)piperidin-1-yl)methyl)-4-cyclopropoxy-1-methyl-1H-benzo[d]imidazole-6-carboxylic acid] |
| 6.00 to 7.00 | > 85% | Cn1c(CN2CCC(c3cccc(OCc4cnc(C#N)cc4F)n3)CC2)nc2c(OC(F)F)cc(C(=O)O)cc21 [Compound 350, 2-((4-(6-((6-Cyano-4-fluoropyridin-3-yl)methoxy)pyridin-2-yl)piperidin-1-yl)methyl)-4-(difluoromethoxy)-1-methyl-1H-benzo[d]imidazole-6-carboxylic acid] |
| > 8.00 | > 85% | N#Cc1ccc(COc2cccc(C3CCN(Cc4nc5c6c(c(C(=O)O)cc5n4C[C@@H]4CCO4)OCCO6)CC3)n2)c(F)c1 [Compound 100, (S)-2-((4-(6-((4-Cyano-2-fluorobenzyl)oxy)pyridin-2-yl)piperidin-1-yl)methyl)-3-(oxetan-2-ylmethyl)-7,8-dihydro-3H-[1,4]dioxino[2′,3′:3,4]benzo[1,2-d]imidazole-5-carboxylic acid] |

Reference: patent publication US20240368120A1 (Terns Pharmaceuticals, Inc., priority 2023, published 2024)
